Values after ≈ are worked out from the molar mass of the structure shown.

The values that follow come from publication PMC6268379, “Antifungal Activity of Homoaconitate and Homoisocitrate Analogs” (Molecules, 2012).

Assay [1] deals with Saccharomyces cerevisiae ATCC 9763. Put plainly: Antifungal in vitro activity, microplate serial dilution (modified CLSI M27-A3). It is filed as cell-based. The following applies: ATCC9763, RPMI-1640 pH 7.0, 24 h at 37 °C, at least 80% decrease in turbidity, read-out: MIC S. cerevisiae.
Assay [2] relates to Candida albicans ATCC 10231. The assay is described as above. It is filed as cell-based. As to conditions: ATCC10231, RPMI-1640 pH 7.0, 24 h at 37 °C, at least 80% decrease in turbidity, read-out: MIC C. albicans.
The test system of assay [3] is Candida glabrata DSM 11226. The description is as above. It is filed as cell-based. As to conditions: Nakaseomyces glabratus, DSM11226; RPMI-1640 pH 7.0, 24 h at 37 °C, at least 80% decrease in turbidity; read-out: MIC C. glabrata.
For assay [4], the system named is Candida tropicalis KKP 334. Described as above. As to conditions: KKP334, RPMI-1640 pH 7.0, 24 h at 37 °C, at least 80% decrease in turbidity, read-out: MIC C. tropicalis. In kind it is cell-based.
Assay [5] has as its system Candida lusitaniae DSM 70102. Described as above. It is filed as cell-based. As to conditions: Clavispora lusitaniae, DSM70102; RPMI-1640 pH 7.0, 24 h at 37 °C, at least 80% decrease in turbidity; read-out: MIC C. lusitaniae.
Another assay has as its system Candida krusei DSM 6128. The assay is described as above. It is filed as cell-based. As to conditions: Pichia kudriavzevii, DSM6128; RPMI-1640 pH 7.0, 24 h at 37 °C, at least 80% decrease in turbidity; read-out: MIC C. krusei.
Assay [6] concerns the target T1, recombinant homoaconitase (HA) (Candida albicans, UniProt Q5A644).
T1 construct: made in house
T1 sequence (Q5A644 1-684): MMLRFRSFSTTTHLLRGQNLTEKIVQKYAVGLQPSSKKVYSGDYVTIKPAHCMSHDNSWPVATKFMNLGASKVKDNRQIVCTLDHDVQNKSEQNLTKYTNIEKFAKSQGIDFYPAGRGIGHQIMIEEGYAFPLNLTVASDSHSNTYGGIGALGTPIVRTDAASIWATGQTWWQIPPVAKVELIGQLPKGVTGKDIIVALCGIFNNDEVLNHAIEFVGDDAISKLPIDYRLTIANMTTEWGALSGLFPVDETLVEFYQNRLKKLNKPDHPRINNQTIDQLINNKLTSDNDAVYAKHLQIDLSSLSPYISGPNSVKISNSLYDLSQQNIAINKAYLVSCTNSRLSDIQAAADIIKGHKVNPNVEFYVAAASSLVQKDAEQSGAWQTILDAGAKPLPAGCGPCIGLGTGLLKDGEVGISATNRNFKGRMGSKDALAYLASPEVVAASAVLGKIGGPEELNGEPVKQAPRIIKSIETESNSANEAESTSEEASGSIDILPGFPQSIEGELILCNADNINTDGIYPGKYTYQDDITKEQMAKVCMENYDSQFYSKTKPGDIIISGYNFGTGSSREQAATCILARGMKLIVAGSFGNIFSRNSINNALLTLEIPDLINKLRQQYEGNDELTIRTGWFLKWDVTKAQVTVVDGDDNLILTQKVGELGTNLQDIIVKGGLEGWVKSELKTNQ
In words: Homoaconitase activity, coupled reaction with HIcDH, NADH at 340 nm. It is filed as biochemical. The following applies: ester derivatives, concentrations up to 10 mM. As to the method: (§1) Recombinant C. albicans homoaconitase (HA) and homoisocitrate dehydrogenase (HIcDH) containing oligoHis N-terminal tags were constructed and purified to near homogeneity as described earlier.
Activity of homoaconitase (HA) was measured by a coupled reaction with HIcDH by monitoring the reduction of NAD^+ to NADH at 340 nm. Reaction mixtures containing 50 mM Tris-HCl (pH 8.5), 50 mM KCl, 5 mM MgCl2, 20 mM dithiothreitol, 1 mM NAD^+ and 30 μg/mL of His6-HIcDH in a total volume of 0.9 mL were degassed under argon for 10 min, after which 0.05 mL of His6-HAC solution was added to a final concentration of 10 μg/mL. The reaction was initiated with addition of 0.05 mL of 50 mM (R)-homocitrate. The formation of NADH was measured for 30 s at 20 °C to determine initial reaction velocity. The initial rates were determined using a linear portion of the reaction progress curve.
(§2) The effects of novel compounds on the HA and HIcDH activity was determined by measuring the enzyme activity in standard assay mixtures containing various concentration of an inhibitor (0–10 mM). Inhibitory potential was expressed as IC50 values, i.e., concentrations causing 50% inhibition of enzyme activity in relation to control. All determinations were performed in triplicate.

Assay [7] deals with recombinant homoisocitrate dehydrogenase (HIcDH) (Candida albicans, UniProt Q5A9D9). In words: Homoisocitrate dehydrogenase activity, NADH absorption at 340 nm. In kind it is biochemical. The following applies: ester derivatives, concentrations up to 10 mM. As to the method:
as §1
Reaction catalyzed by homoisocitrate dehydrogenase (HIcDH) was monitored by measuring the NADH absorption at 340 nm. The standard assay mixture contained 10 mM KCl, 5.0 mM MgCl2, 5 mM NAD^+ and 0.1 mM (2R,3S)-homoisocitrate in 50 mM Hepes-NaOH (pH 7.8) buffer. The reaction mixture with all required components except for the enzyme was preincubated for 3 min and the reaction was started by an addition of the recombinant His6-HIcDH (50 μg). The formation of NADH was measured for 30 s at 20 °C to determine initial reaction velocity. The initial rates were determined using a linear portion of the reaction progress curve.
as §2

A further assay has as its system six yeast strains. Put plainly: In vitro antifungal activity against six yeast strains. It is filed as cell-based. The following applies: range stated in text over the tested yeast strains.

Chain of recombinant homoisocitrate dehydrogenase (HIcDH) (Q5A9D9 entry or part of it): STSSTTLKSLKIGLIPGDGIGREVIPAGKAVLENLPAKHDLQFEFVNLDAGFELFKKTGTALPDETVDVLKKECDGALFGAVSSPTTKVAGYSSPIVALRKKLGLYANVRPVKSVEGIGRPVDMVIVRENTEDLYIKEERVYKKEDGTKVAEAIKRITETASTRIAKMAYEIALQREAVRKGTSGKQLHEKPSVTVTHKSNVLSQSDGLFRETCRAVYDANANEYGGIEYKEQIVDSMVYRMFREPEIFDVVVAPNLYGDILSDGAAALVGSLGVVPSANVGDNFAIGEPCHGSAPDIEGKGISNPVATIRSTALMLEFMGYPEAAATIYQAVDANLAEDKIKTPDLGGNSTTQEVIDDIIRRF

Regarding `COC(=O)/C=C(\CCC(=O)OC)C(=O)OC` [Compound 1a, trimethyl (1E)-but-1-ene-1,2,4-tricarboxylate], the minimum inhibitory concentration (MIC) (commonly the lowest concentration that inhibits growth of the organism) in assay [1] was 32 µg/mL (≈ 139 µM); in [2], 16 µg/mL (≈ 69.5 µM); in assay [3], 16 µg/mL (≈ 69.5 µM); in [4] it was 32 µg/mL (≈ 139 µM); in assay [5], 16 µg/mL (≈ 69.5 µM); in the assay on Candida krusei DSM 6128 it was 32 µg/mL (≈ 139 µM). Besides, the “effect on enzyme activity (homoaconitase)” value in assay [6] is “none”. Also, in [7], the “effect on enzyme activity (homoisocitrate dehydrogenase)” value is “none”. The “MIC values, range over susceptible yeast strains” value in the assay with six yeast strains lay in the range of 16 to 32 µg/mL.
